Measurements as given in paper PMC8309005, “Novel Non-Congeneric Derivatives of the Choline Kinase Alpha Inhibitor ICL-CCIC-0019” (Pharmaceutics, 2021).
Like-named read-outs stand apart in the source and are kept apart here.

Legend:
[1] = system: C4-2B prostate cancer cells; assay: Cellular uptake and metabolism study in C4-2B with or without serum (HPLC); conditions: 50 μM, 4 h; for mean cellular uptake: mean of ICL-CCIC-0019 and CK146; for detection in cell lysates by HPLC (in words): both FCS groups
Experimental: Cell lysate sample preparation: C4-2B prostate cancer cells were seeded into cell culture dishes (150 × 25 mm) at a density of 7 × 10^6 per dish. The cells were allowed to settle and grow for another 48 h. The cells were treated with ICL-CCIC-0019, CK146, CK147 and CK148 (50 μM of 7 mL RPMI medium with or without 10% FCS) for 4 h in the incubator. After 4-h incubation, the aliquots of medium were collected (see the medium sample preparation section). Cells were scraped, washed with ice-cold PBS three times and collected by centrifugation (4 °C, 4000× g). The cell pellets were resuspended in 500 μL of chilled acetonitrile:PBS (50:50, v/v) for cell disruption and homogenization. The cell disruption was performed by a Precellys® 24 homogenizer (Bertin Technologies, Montigny-le-Bretonneux, France) at 4 °C. After acetonitrile evaporation at room temperature, 50 μL of cell lysis was taken for protein analysis. Another 100 μL of the supernatant obtained after centrifuge (4 °C, 15,000× g) was resuspended in 100 μL formic acid:water (0.2%, v/v). Next, 100 μL of the filtered solution was analyzed by HPLC system described in Supplementary HPLC method D. Three injections were performed for each sample. Intracellular drug was normalized to cellular protein of each plate using BCA assay. Medium sample preparation for HPLC analysis: 250-μL aliquots of medium (with or without 10% FCS) were transferred into 1.5-mL tube containing 250 μL acetonitrile. After a brief vortex, the tube was placed at 4 °C for 30 min for protein precipitation. One hundred microliters of the resulting supernatant from centrifuge (4 °C, 15,000× g) were resuspended in 100 μL formic acid: water (0.2%, v/v). One hundred microliters of the filtered sample were analyzed by HPLC system described in Supplementary HPLC method D. Three injections were performed for each sample.

[2] = system: MCF-10A and ST-T1B (2 normal cell lines); conditions: read-out: GI50 range of 2 normal cell lines (MCF-10A and ST-T1B); cited from earlier work
8 cancer cell lines = system: 8 cancer cell lines; set-up: method as in PMID 27206796; conditions: cited from earlier work
HCT-116 = conditions: cited from earlier work
A549 = conditions: cited from earlier work
HCT116 xenografts = conditions: cited from earlier work
[3] = system: Δ49N CHKA2 (recombinant CHKA2); conditions: read-out: IC50 Δ49N CHKA2; cited from earlier work

Structure (SMILES) | mean cellular uptake ([1]; FCS negative group) [% μg^−1 protein] | mean cellular uptake ([1]; FCS positive group (10% FCS)) [% μg^−1 protein] | detection in cell lysates by HPLC (in words) [1] | GI50 [2] [nM] | GI50 (8 cancer cell lines; read-out: GI50 range of 8 cancer cell lines) [nM] | GI50 (8 cancer cell lines; read-out: mean GI50 of 8 cancer cell lines) [nM] | GI50 (HCT-116) [nM] | GI50 (A549) [nM] | in vivo anti-tumor activity (in words) (HCT116 xenografts) | body weight effect (in words) (HCT116 xenografts; in vivo) | IC50 [3] [nM]
CN(C)c1cc[n+](CCCCCCCCCCCCCC[n+]2ccc(N3CCNCC3)cc2)cc1 [CK146] | 34.1 ± 0.6 | 24.9 ± 1.4 | detected |  |  |  |  |  |  |  | 
CN(C)c1cc[n+](CCCCCCCCCCCC[n+]2ccc(N(C)C)cc2)cc1 [ICL-CCIC-0019] | 34.1 ± 0.6 | 24.9 ± 1.4 | detected | 30000 to 120000 | 380 to 2700 | 1090 | 640 | 380 | potent in vivo anti-tumor activity | slight reduction in body weight | 270 ± 60
